Legend:
Format in all cases: in vivo
[1] = test system: kochia (Kochia scoparia); assay: Test A preemergence, visual plant response rating; conditions: approx. 10 days
Summary of the method: (§1)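 Preemergence: seeds in loam/sand blend given directed soil spray of compound in non-phytotoxic solvent with surfactant. Postemergence: plants 2–10 cm, one- to two-leaf stage, sprayed with same formulation. Visual injury rated vs untreated controls after ~10 days in greenhouse, 0 (no effect) to 100 (complete control).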

[2] = test system: pigweed (Amaranthus retroflexus); assay: Test A preemergence, visual plant response rating; conditions: approx. 10 days
Summary of the method: as §1

[3] = test system: foxtail, green (green foxtail, Setaria viridis); assay: Test A preemergence, visual plant response rating; conditions: approx. 10 days
Summary of the method: as §1

[4] = test system: ragweed (common ragweed, Ambrosia elatior); assay: Test A preemergence, visual plant response rating; conditions: approx. 10 days
Summary of the method: as §1

[5] = test system: Italian ryegrass (Lolium multiflorum); assay: Test A preemergence, visual plant response rating; conditions: approx. 10 days
Summary of the method: as §1

[6] = test system: barnyardgrass (Echinochloa crus-galli); assay: Test A preemergence, visual plant response rating; conditions: approx. 10 days
Summary of the method: as §1

[7] = test system: kochia (Kochia scoparia); assay: Test A postemergence, visual plant response rating; conditions: for Kochia plant response rating (0 to 100 scale): 500 g ai/ha, postemergence, 0 is no effect, 100 is complete control
Summary of the method: as §1

[8] = test system: pigweed (Amaranthus retroflexus); assay: Test A postemergence, visual plant response rating; conditions: for Pigweed plant response rating (0 to 100 scale): 500 g ai/ha, postemergence, 0 is no effect, 100 is complete control
Summary of the method: as §1

[9] = test system: corn (Zea mays); assay: Test A postemergence, visual plant response rating; conditions: for Corn plant response rating (0 to 100 scale): 500 g ai/ha, postemergence, 0 is no effect, 100 is complete control
Summary of the method: as §1

[10] = test system: foxtail, green (green foxtail, Setaria viridis); assay: Test A postemergence, visual plant response rating; conditions: for Foxtail, Green plant response rating (0 to 100 scale): 500 g ai/ha, postemergence, 0 is no effect, 100 is complete control
Summary of the method: as §1

[11] = test system: ragweed (common ragweed, Ambrosia elatior); assay: Test A postemergence, visual plant response rating; conditions: for Ragweed plant response rating (0 to 100 scale): 500 g ai/ha, postemergence, 0 is no effect, 100 is complete control
Summary of the method: as §1

[12] = test system: wheat (Triticum aestivum); assay: Test A postemergence, visual plant response rating; conditions: for Wheat plant response rating (0 to 100 scale): 500 g ai/ha, postemergence, 0 is no effect, 100 is complete control
Summary of the method: as §1

[13] = test system: Italian ryegrass (Lolium multiflorum); assay: Test A postemergence, visual plant response rating; conditions: for Ryegrass, Italian plant response rating (0 to 100 scale): 500 g ai/ha, postemergence, 0 is no effect, 100 is complete control
Summary of the method: as §1

[14] = test system: blackgrass (Alopecurus myosuroides); assay: Test A postemergence, visual plant response rating; conditions: for Blackgrass plant response rating (0 to 100 scale): 500 g ai/ha, postemergence, 0 is no effect, 100 is complete control
Summary of the method: as §1

[15] = test system: barnyardgrass (Echinochloa crus-galli); assay: Test A postemergence, visual plant response rating; conditions: for Barnyardgrass plant response rating (0 to 100 scale): 500 g ai/ha, postemergence, 0 is no effect, 100 is complete control
Summary of the method: as §1

[16] = test system: rice (Oryza sativa); assay: Test B flooded paddy test, visual plant response rating; conditions: 250 g ai/ha, Flood, applied to paddy water, 2-leaf stage, evaluated after 13 to 15 days
Summary of the method: (§2)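 Plants were raised to the 2-leaf stage, then pots were flooded to 3 cm above the soil and test compound was applied directly into the paddy water. Water depth was held for the whole test; after 13 to 15 days in a greenhouse, responses were scored visually against controls.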

[17] = test system: ducksalad (Heteranhera limosa); assay: as above; conditions: 250 g ai/ha, Flood, applied to paddy water, 2-leaf stage, evaluated after 13 to 15 days
Summary of the method: as §2

[18] = test system: barnyardgrass (Echinochloa crus-galli); assay: as above; conditions: 250 g ai/ha, Flood, applied to paddy water, 2-leaf stage, evaluated after 13 to 15 days
Summary of the method: as §2

[19] = test system: sedge, umbrella (small-flower umbrella sedge, Cyperus difformis); assay: as above; conditions: 250 g ai/ha, Flood, applied to paddy water, 2-leaf stage, evaluated after 13 to 15 days
Summary of the method: as §2

[20] = test system: galium (catchweed bedstraw, Galium aparine); assay: Test A postemergence, visual plant response rating; conditions: 500 g ai/ha, postemergence; 0 is no effect, 100 is complete control
Summary of the method: as §1

[21] = Postemergence, 125 g ai/ha, 0 to 100 scale (0 no effect, 100 complete control)

SMILES: CO/N=C(\c1cccc(Cl)c1)c1c(O)c(C)nn(C)c1=O [Compound 10, 4-[(E)-(3-chlorophenyl)(methoxyimino)methyl]-5-hydroxy-2,6-dimethyl-3(2H)-pyridazinone]
- Kochia plant response rating (0 to 100 scale) ([1]; 125 g ai/ha Preemergence): 30
- Kochia plant response rating (0 to 100 scale) ([1]; 500 g ai/ha Preemergence): 90
- Pigweed plant response rating (0 to 100 scale) ([2]; 125 g ai/ha Preemergence): 20
- Pigweed plant response rating (0 to 100 scale) ([2]; 500 g ai/ha Preemergence): 100
- Foxtail, Green plant response rating (0 to 100 scale) ([3]; 125 g ai/ha Preemergence): 20
- Foxtail, Green plant response rating (0 to 100 scale) ([3]; 500 g ai/ha Preemergence): 20
- Ragweed plant response rating (0 to 100 scale) ([4]; 125 g ai/ha Preemergence): 70
- Ragweed plant response rating (0 to 100 scale) ([4]; 500 g ai/ha Preemergence): 90
- Ryegrass, Italian plant response rating (0 to 100 scale) ([5]; 125 g ai/ha Preemergence): 30
- Ryegrass, Italian plant response rating (0 to 100 scale) ([5]; 500 g ai/ha Preemergence): 90
- Barnyardgrass plant response rating (0 to 100 scale) ([6]; 125 g ai/ha Preemergence): 0
- Barnyardgrass plant response rating (0 to 100 scale) ([6]; 500 g ai/ha Preemergence): 10
- Kochia plant response rating (0 to 100 scale) [7]: 80
- Kochia plant response rating [7, 21]: 70
- Pigweed plant response rating (0 to 100 scale) [8]: 60
- Pigweed plant response rating [8, 21]: 20
- Corn plant response rating (0 to 100 scale) [9]: 0
- Corn plant response rating [9, 21]: 0
- Foxtail, Green plant response rating (0 to 100 scale) [10]: 20
- Foxtail, Green plant response rating [10, 21]: 0
- Ragweed plant response rating (0 to 100 scale) [11]: 100
- Ragweed plant response rating [11, 21]: 90
- Wheat plant response rating (0 to 100 scale) [12]: 20
- Wheat plant response rating [12, 21]: 0
- Ryegrass, Italian plant response rating (0 to 100 scale) [13]: 90
- Ryegrass, Italian plant response rating [13, 21]: 60
- Blackgrass plant response rating (0 to 100 scale) [14]: 30
- Blackgrass plant response rating [14, 21]: 10
- Barnyardgrass plant response rating (0 to 100 scale) [15]: 10
- Barnyardgrass plant response rating [15, 21]: 0
- Plant response rating, Rice (0 to 100 scale, 0 is no effect, 100 is complete control) [16]: 0
- Plant response rating, Ducksalad (0 to 100 scale, 0 is no effect, 100 is complete control) [17]: 0
- Plant response rating, Barnyardgrass (0 to 100 scale, 0 is no effect, 100 is complete control) [18]: 0
- Plant response rating, Sedge, Umbrella (0 to 100 scale, 0 is no effect, 100 is complete control) [19]: 0

SMILES: CO/N=C(\c1cccc(C)c1)c1c(O)c(C2CC2)nn(C)c1=O [Compound 27]
- Kochia plant response rating (0 to 100 scale) ([1]; 500 g ai/ha Preemergence): 0
- Pigweed plant response rating (0 to 100 scale) ([2]; 500 g ai/ha Preemergence): 0
- Foxtail, Green plant response rating (0 to 100 scale) ([3]; 500 g ai/ha Preemergence): 0
- Ragweed plant response rating (0 to 100 scale) ([4]; 500 g ai/ha Preemergence): 10
- Ryegrass, Italian plant response rating (0 to 100 scale) ([5]; 500 g ai/ha Preemergence): 10
- Barnyardgrass plant response rating (0 to 100 scale) ([6]; 500 g ai/ha Preemergence): 10
- Kochia plant response rating (0 to 100 scale) [7]: 0
- Pigweed plant response rating (0 to 100 scale) [8]: 30
- Corn plant response rating (0 to 100 scale) [9]: 0
- Foxtail, Green plant response rating (0 to 100 scale) [10]: 0
- Ragweed plant response rating (0 to 100 scale) [11]: 40
- Wheat plant response rating (0 to 100 scale) [12]: 20
- Galium plant response rating (0 to 100 scale) [20]: 80
- Ryegrass, Italian plant response rating (0 to 100 scale) [13]: 20
- Blackgrass plant response rating (0 to 100 scale) [14]: 10
- Barnyardgrass plant response rating (0 to 100 scale) [15]: 0

From US20210045385A1, “PYRIDAZINONE-SUBSTITUTED KETOXIMES AS HERBICIDES” (FMC Corporation, priority 2018, published 2021)
